# Test results published in US8119624B2, “Fused phenyl amido heterocyclic compounds” (Pfizer Inc., priority 2006, dated 2012).
# Target: T1, Full-length glucokinase (beta cell isoform) (Homo sapiens, UniProt P35557)
# T1 construct: Full-length glucokinase (beta cell isoform) was His-tagged at N-terminus; His tag (N); made in house
# T1 sequence (P35557 1-465): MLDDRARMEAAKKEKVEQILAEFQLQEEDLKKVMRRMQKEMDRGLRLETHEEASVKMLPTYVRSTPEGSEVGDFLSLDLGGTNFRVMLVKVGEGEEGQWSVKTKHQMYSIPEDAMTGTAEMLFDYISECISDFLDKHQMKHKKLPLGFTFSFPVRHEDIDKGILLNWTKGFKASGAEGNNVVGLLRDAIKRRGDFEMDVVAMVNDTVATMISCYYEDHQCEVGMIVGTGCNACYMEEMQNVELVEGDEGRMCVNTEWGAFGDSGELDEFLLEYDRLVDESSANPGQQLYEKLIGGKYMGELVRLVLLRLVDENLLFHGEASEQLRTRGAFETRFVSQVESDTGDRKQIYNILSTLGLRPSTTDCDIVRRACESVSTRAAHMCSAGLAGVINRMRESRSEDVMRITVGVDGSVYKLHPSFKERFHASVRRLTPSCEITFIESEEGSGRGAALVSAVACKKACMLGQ
# Experiment: Glucokinase biochemical assay (PK/LDH-coupled, NADH depletion at 340 nm): % activation, EC50, % max activation
# Details: 5 mM glucose; for activation at 10 µM: 10 uM compound, % Activation=(Va/Vo−1)×100, read-out: % Activation at 10 uM; for EC50: GK activation, read-out: EC50; for Emax: fitted maximum activation, read-out: % Max Activation
# Outline: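 N-terminally His-tagged full-length human beta-cell glucokinase, room temperature, 5 mM glucose, 1 mM ATP, PK/LDH-coupled with 0.7 mM NADH, 1% DMSO final. Initial velocity from the 200–900 s slope of A340 decline. % activation = (Va/Vo−1)×100, measured across compound concentrations.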
activation at 10 µM [%],EC50 [nM],Emax [%],Compound
53.1,2900,69,"Cc1cc2c(Oc3ccc(S(C)(=O)=O)cc3)cc(C(=O)Nc3ccc(Cl)cn3)cc2o1 [Example 260, N-(5-chloropyridin-2-yl)-2-methyl-4-(4-(methylsulfonyl)-phenoxy)benzofuran-6-carboxamide]"
147,240,141,"Cn1ccc(NC(=O)c2cc(Oc3ccc(C(=O)Nc4ccn(C)n4)c(F)c3)c3c(c2)OC(C)(C)C3)n1 [Example 65, 4-[3-Fluoro-4-(1-methyl-1H-pyrazol-3-ylcarbamoyl)-phenoxy]-2,2-dimethyl-2,3-dihydro-benzofuran-6-carboxylic acid(1-methyl-1H-pyrazol-3-yl)-amide]"
4.3,,,"CC1(C)Cc2c(Oc3ccc(S(C)(=O)=O)cc3)cc(C(=O)Nc3ccc(C(N)=O)cn3)cc2O1 [Example 15, 6-{[4-(4-Methanesulfonyl-phenoxy)-2,2-dimethyl-2,3-dihydro-benzofuran-6-carbonyl]-amino}-nicotinamide]"
292,210,272,"Cn1ncc(NC(=O)c2cc(Oc3ccc(S(=O)(=O)C4CC4)cc3)c3c(c2)OC(C)(C)C3)n1 [Example 131, 4-(4-Cyclopropanesulfonyl-phenoxy)-2,2-dimethyl-2,3-dihydro-benzofuran-6-carboxylic acid (2-methyl-2H-[1,2,3]triazol-4-yl)-amide]"
45.8,> 10000,,"Cn1ccc(NC(=O)c2cc(Oc3ccc(S(C)(=O)=O)cc3)c3sccc3c2)n1 [Example 364, 7-(4-(Methylsulfonyl)phenoxy)-N-(1-methyl-1H-pyrazol-3-yl)benzo-[b]-thiophene-5-carboxamide]"
145,348,140,"Cc1ccc(NC(=O)c2cc(Oc3ccc(S(C)(=O)=O)cc3)c3c(c2)OC(C)(C)C3)nc1 [Example 3, 4-(4-Methanesulfonyl-phenoxy)-2,2-dimethyl-2,3-dihydrobenzofuran-6-carboxylic acid(5-methyl-pyridin-2-yl)-amide]"
47.8,179,50,"Cc1cc(NC(=O)c2cc(Oc3ccc(C(=O)N(C)C)c(F)c3)c3c(c2)OC(C)(C)C3)no1 [Example 143, 4-(4-Dimethylcarbamoyl-3-fluoro-phenoxy)-2,2-dimethyl-2,3-dihydro-benzofuran-6-carboxylic acid (5-methyl-isoxazol-3-yl)-amide]"
171,3600,213,"CNC(=O)c1ncc(Oc2cc(C(=O)Nc3ccn(C)n3)cc3c2CC(C)(C)O3)cn1 [Example 171, 5-[2,2-Dimethyl-6-(1-methyl-1H-pyrazol-3-ylcarbamoyl)-2,3-dihydro-benzofuran-4-yloxy]-pyrimidine-2-carboxylic acid methylamide]"
244,290,237,"Cn1ccc(NC(=O)c2cc(Oc3ccc(-c4ncon4)nc3)c3c(c2)OC(C)(C)C3)n1 [Example 182, 2,2-Dimethyl-4-(6-[1,2,4]oxadiazol-3-yl-pyridin-3-yloxy)-2,3-dihydro-benzofuran-6-carboxylic acid (1-methyl-1H-pyrazol-3-yl)-amide]"
55.6,2700,66,"Cc1ccc(NC(=O)c2cc(Oc3cc(F)ccc3S(C)(=O)=O)c3c(c2)OC(C)(CO)C3)nc1 (stereo not drawn) [Example 236, 4-(5-Fluoro-2-methanesulfonyl-phenoxy)-2-hydroxymethyl-2-methyl-2,3-dihydro-benzofuran-6-carboxylic acid (5-methyl-pyridin-2-yl)-amide]"
144,4200,183,"COCc1nnc(NC(=O)c2cc(Oc3ccc(S(C)(=O)=O)cc3)c3c(c2)OC(C)(C)C3)s1 [Example 30, 4-(4-Methanesulfonyl-phenoxy)-2,2-dimethyl-2,3-dihydro-benzofuran-6-carboxylic acid(5-methoxymethyl-[1,3,4]thiadiazol-2-yl)-amide]"
94.2,1700,74,"CCc1ccc(NC(=O)c2cc(Oc3ccc(S(C)(=O)=O)cc3)c3cc(C)oc3c2)nc1 [Example 265, N-(5-Ethylpyridin-2-yl)-2-methyl-4-(4-(methylsulfonyl)-phenoxy)benzofuran-6-carboxamide]"

# Continued, compound first:
Compound,activation at 10 µM [%],EC50 [nM],Emax [%]
"Cc1ccc(NC(=O)c2cc(OC(C)C)cc3occc23)nc1 [Example 344, 6-Isopropoxy-N-(5-methylpyridin-2-yl)benzofuran-4-carboxamide]",89.5,1400,106
"Cc1csc2cc(C(=O)Nc3ccn(C)n3)cc(Oc3ccc(C(=O)N(C)C)cc3)c12 [Example 352, 4-{4-[(Dimethylamino)carbonyl]phenoxy}-3-methyl-N-(1-methyl-1H-pyrazol-3-yl)-1-benzothiophene-6-carboxamide]",12.3,,
"CCOCC1Cc2c(OC(C)C)cc(C(=O)Nc3ccn(C)n3)cc2O1 (stereo not drawn) [Example 217, 2-Ethoxymethyl-4-isopropoxy-2,3-dihydro-benzofuran-6-carboxylic acid (1-methyl-1H-pyrazol-3-yl)-amide]",5.3,,
"Cn1cc(C(=O)COc2cc(C(=O)Nc3ccn(C)n3)cc3c2CC(C)(C)O3)cn1 [Example 105, 2,2-Dimethyl-4-[2-(1-methyl-1H-pyrazol-4-yl)-2-oxo-ethoxy]-2,3-dihydro-benzofuran-6-carboxylic acid (1-methyl-1H-pyrazol-3-yl)-amide]",70.1,9400,102
"CN(C)C(=O)c1ccc(Oc2cc(C(=O)Nc3ccn(C)n3)cc3c2CC(C)(CO)O3)cc1F (stereo not drawn) [Example 229, 4-(4-Dimethylcarbamoyl-3-fluoro-phenoxy)-2-hydroxymethyl-2-methyl-2,3-dihydro-benzofuran-6-carboxylic acid (1-methyl-1H-pyrazol-3-yl)-amide]",101,120,97
"Cc1ccc(NC(=O)c2cc(OC3CN(S(C)(=O)=O)C3)c3cc(C)oc3c2)nc1 [Example 326, 2-Methyl-N-(5-methylpyridin-2-yl)-4-{[1-(methylsulfonyl)-azetidin-3-yl]oxy}-1-benzofuran-6-carboxamide]",76.9,2100,90
"Cc1noc(COc2cc(C(=O)Nc3ccn(C)n3)cc3c2CC(C)(C)O3)n1 [Example 94, 2,2-Dimethyl-4-(3-methyl-[1,2,4]oxadiazol-5-ylmethoxy)-2,3-dihydro-benzofuran-6-carboxylic acid (1-methyl-1H-pyrazol-3-yl)-amide]",116,4400,140
"Cc1ncsc1CCOc1cc(C(=O)Nc2ccn(C)n2)cc2c1CC(C)(C)O2 [Example 99, 2,2-Dimethyl-4-[2-(4-methyl-thiazol-5-yl)-ethoxy]-2,3-dihydro-benzofuran-6-carboxylic acid (1-methyl-1H-pyrazol-3-yl)-amide]",112,4300,136
"CC(C)Oc1cc(C(=O)Nc2ccn(C)n2)cc2c1CC(CNC1CC1)O2 (stereo not drawn) [Example 219, 2-Cyclopropylaminomethyl-4-isopropoxy-2,3-dihydro-benzofuran-6-carboxylic acid (1-methyl-1H-pyrazol-3-yl)-amide]",8,,
